Data as given in US20240041982A1, “EXTENDED RELEASE HYDROGEL CONJUGATES OF C-NATRIURETIC PEPTIDES” (ProLynx LLC, priority 2020, published 2024).
Bridge positions count the residues as written; N and C are the ends. Ends that are not written are not given here.

Experiments:
[1] = tested on: wild-type male mice (FVB/nJ); assay: Pharmacodynamics in juvenile mice: growth and bone length by X-ray; assay type: in vivo; conditions: QD 70 nmol/kg; after 5 weeks of treatment
Method: Three-week old wild-type male mice (FVB/nJ; Charles River Laboratory, Inc) were administered subcutaneous injections of the conjugates of Example 3 at either a weight-adjusted (nmol/kg) or constant (nmol/animal independent of the initial weight) dose over 35 days. For experiments using constant doses/animal, the conjugate of Example 3 wherein R^1=isopropylsulfonyl (conjugate 4A) was administered at either 20 or 50 nmol/mouse; the conjugate of Example 3 wherein R^1=(N,N-dimethylamino)sulfonyl (conjugate 4B) was administered at either 85 or 600 nmol/mouse. For experiments using weight-adjusted doses/animal, conjugate 4A was administered at either 1.5 or 2.2 umol/kg; conjugate 4B was administered at 6.1 umol/kg. Doses were calculated based on the body weight just prior to dosing and performed at approximately the same time of day. Comparator animals were dosed with either [Gln^6,14]CNP-38 or vosoritide at 70 nmol/kg formulated in 30 mM acetic acid pH 4.0 containing 10% (w/v) sucrose and 1% (v/v) benzyl alcohol (Wendt; Breinholt), and control animals were dosed with the formulation buffer (isotonic acetate (10 mM Na Acetate, 143 mM NaCl), pH 5.0, 0.05% Tween 20 buffer containing 1.2% sodium hyaluronate. Daily weight-adjusted doses were calculated based on the body weight just prior to dosing and performed at approximately the same time each day.
Blood collections were made via tail vein with the addition of protease inhibitors (Halt protease inhibitor cocktail, ThermoScientific) and processed with K2EDTA to provide ˜15-20 μL plasma, for analysis of free [Gln^6,14]CNP-38. For the mice treated with the conjugate 4A, blood collection occurred at 0, 24, 168, 192, 336, 360, 504, 528, 672 and 840 hr. For the mice treated with conjugate 4B, blood collection occurred at 0, 24, 168, 336, 504, 672 and 840 hr.
Body weight, tail length and naso-anal length were collected at study initiation and were measured weekly during the in-life treatment period. […] The naso-anal (distance from the tip of the nose to the anus) and the tail length (distance from the anus to the tip of the tail) were measured and recorded. The same ruler was used for all measurements, and all measurements were conducted and recorded in centimeters. Total length (TL) is derived from the addition of the measured tail length and naso-anal length.
On day 35, the mice were anesthetized and in addition to the nasal-anal and tail length measurements, bone length measurements were made by digital X-ray (spine, right femur, right tibia, humerus and ulna). Following deep anesthesia with isoflurane, the mice were placed in the prone position and the length of the spine (lateral view, distance from the most cranial end of the C1 vertebra to the most caudal end of the S4 vertebra and accounting for curvature manually), the right femur (distance from the most proximal femoral head ossification center to the most distal ossification center in dorso-ventral view), the right tibia (distance from the most proximal ossification center to the most distal ossification center in dorso-ventral view), the right humerus (distance from the most proximal ossification center to the most distal ossification center in dorso-ventral view), and the right ulna (distance from the most proximal ossification center to the most distal ossification center in dorso-ventral view) of each mouse were measured by x-ray using a Spectral Imaging Instruments AMI HTX and the associated Aura software.

NPR-B = target: T1, NPR-B (Homo sapiens, UniProt P20594); conditions: physiological concentrations (picomolar); cited from earlier work
T1 sequence (P20594 23-1047): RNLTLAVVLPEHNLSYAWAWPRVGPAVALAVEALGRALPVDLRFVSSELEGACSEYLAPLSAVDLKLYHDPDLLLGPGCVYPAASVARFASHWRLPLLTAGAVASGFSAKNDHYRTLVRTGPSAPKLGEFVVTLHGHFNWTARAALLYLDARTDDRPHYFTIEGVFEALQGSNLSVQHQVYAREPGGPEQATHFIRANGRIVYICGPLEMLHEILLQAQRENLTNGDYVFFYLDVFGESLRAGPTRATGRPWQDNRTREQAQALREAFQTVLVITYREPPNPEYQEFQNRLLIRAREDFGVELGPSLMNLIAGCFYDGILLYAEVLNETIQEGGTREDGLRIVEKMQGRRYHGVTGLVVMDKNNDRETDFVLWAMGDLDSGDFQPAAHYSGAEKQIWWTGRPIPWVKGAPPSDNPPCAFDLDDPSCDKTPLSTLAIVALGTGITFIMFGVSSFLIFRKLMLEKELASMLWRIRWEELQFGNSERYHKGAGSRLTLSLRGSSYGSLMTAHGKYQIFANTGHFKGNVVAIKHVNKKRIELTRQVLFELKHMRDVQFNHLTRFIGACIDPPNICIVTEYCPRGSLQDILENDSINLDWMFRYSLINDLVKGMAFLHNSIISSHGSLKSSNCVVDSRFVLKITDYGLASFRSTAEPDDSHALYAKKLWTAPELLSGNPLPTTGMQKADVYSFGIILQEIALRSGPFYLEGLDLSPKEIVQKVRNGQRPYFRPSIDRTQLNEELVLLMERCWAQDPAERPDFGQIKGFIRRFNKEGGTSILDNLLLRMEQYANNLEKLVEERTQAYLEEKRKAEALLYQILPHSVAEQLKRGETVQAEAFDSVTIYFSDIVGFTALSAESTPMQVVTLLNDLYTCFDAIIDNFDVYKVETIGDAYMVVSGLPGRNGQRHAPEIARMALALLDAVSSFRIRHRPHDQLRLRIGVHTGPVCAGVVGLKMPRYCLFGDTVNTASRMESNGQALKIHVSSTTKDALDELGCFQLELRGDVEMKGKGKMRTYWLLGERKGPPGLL

[2] = in vivo; cited from earlier work
[3] = in vivo; cited from earlier work; remark: listed apart in the source

## (Gln^6,14)CNP38 (LQEHPQARKYKGAQKKGLSKGCFGLKLDRIGSMSGLGC; disulfide 22-38) [[Gln6, 14] CNP-38]
[1]
  Femur length % change from vehicle: (13.6%)
  Humerus length % change from vehicle: (0.8%)
  Spine length % change from vehicle: (10.1%)
  Tibia length % change from vehicle: (8.7%)
  Ulna length % change from vehicle: (5.4%)

## CNP22
NPR-B
  affinity for NPR-B relative to ANP and BNP: 50-500 times
[2]
  plasma half-life: ~3 min

## vosoritide (PGQEHPNARKYKGANKKGLSKGCFGLKLDRIGSMSGLGC; disulfide 23-39)
[2]
  half-life: 20 min
[3]
  known side-effects: increased heart rate and a drop in arterial blood pressure
